“And” between values parts separate entries of the source, which are not always exact repeats. Equal values may be shown once. Toxic doses and inconclusive results are not listed.
System: B6C3F1 mice, ip Sarcoma M5076, median survival T/C
Test: NCI In Vivo Anticancer Drug Screen. Data for tumor model Sarcoma M5076 (intraperitoneal) in B6C3F1 mice
Conditions: endpoint: median survival time, higher = longer survival
Description: The antitumor activity of compounds was measured in mice bearing transplantable tumors. Survival or tumor size were measured and the results are expressed as the measurement made in the treated group (T) divided by the measurement made in the vehicle treated control group (C). The tumor model used in this assay is Sarcoma M5076 (intraperitoneal) in B6C3F1 mice

[1] = dose: 100.0 mg/kg/injection, schedule: Q04DX004 (ip), vehicle: saline with Tween-80
[2] = dose: 25.0 mg/kg/injection, schedule: Q04DX004 (ip), vehicle: saline with Tween-80
[3] = dose: 50.0 mg/kg/injection, schedule: Q04DX004 (ip), vehicle: saline with Tween-80
[4] = dose: 37.5 mg/kg/injection, schedule: Q04DX004 (ip), vehicle: saline with Tween-80

O=c1[nH]c(=O)n(C2CC(O)C(CO)O2)cc1C(F)(F)F (stereo not drawn)
T/C [1]: 113 % of control and 114 % of control
T/C (dose: 200.0 mg/kg/injection, schedule: Q04DX004 (ip), vehicle: saline with Tween-80): 109 % of control and 113 % of control
T/C (dose: 400.0 mg/kg/injection, schedule: Q04DX004 (ip), vehicle: saline with Tween-80): 110 % of control and 112 % of control
T/C (dose: 800.0 mg/kg/injection, schedule: Q04DX004 (ip), vehicle: saline with Tween-80): 116 % of control
T/C (dose: 1600.0 mg/kg/injection, schedule: Q04DX004 (ip), vehicle: saline with Tween-80): 116 % of control

C/C=C/C=C\C=C/C(O)CC(OP(=O)(O)O)C(C)(O)/C=C/C1CC=CC(=O)O1 (stereo not drawn)
T/C (dose: 0.75 mg/kg/injection, schedule: Q04DX004 (ip), vehicle: Klucel (hydroxypropylcellulose) (HPC)): 104 % of control
T/C (dose: 1.5 mg/kg/injection, schedule: Q04DX004 (ip), vehicle: Klucel (hydroxypropylcellulose) (HPC)): 112 % of control
T/C (dose: 1.5 mg/kg/injection, schedule: Q04DX004 (ip), vehicle: water): 106 % of control
T/C (dose: 3.0 mg/kg/injection, schedule: Q04DX004 (ip), vehicle: Klucel (hydroxypropylcellulose) (HPC)): 111 % of control
T/C (dose: 3.0 mg/kg/injection, schedule: Q04DX004 (ip), vehicle: water): 108 % of control and 111 % of control
T/C (dose: 6.0 mg/kg/injection, schedule: Q04DX004 (ip), vehicle: Klucel (hydroxypropylcellulose) (HPC)): 112 % of control
T/C (dose: 6.0 mg/kg/injection, schedule: Q04DX004 (ip), vehicle: water): 108 % of control and 113 % of control
T/C (dose: 12.0 mg/kg/injection, schedule: Q04DX004 (ip), vehicle: water): 108 % of control
T/C (dose: 24.0 mg/kg/injection, schedule: Q04DX004 (ip), vehicle: water): 112 % of control

CC(C)(C[NH-])C[NH-].[Cl][Pt+2][Cl]
T/C (dose: 0.25 mg/kg/injection, schedule: Q04DX004 (ip), vehicle: water): 116 % of control
T/C (dose: 1.0 mg/kg/injection, schedule: Q04DX004 (ip), vehicle: water): 157 % of control and 174 % of control
T/C (dose: 2.0 mg/kg/injection, schedule: Q04DX004 (ip), vehicle: water): 181 % of control and 198 % of control
T/C (dose: 4.0 mg/kg/injection, schedule: Q04DX004 (ip), vehicle: water): 90 % of control and 241 % of control

COc1ccc(C[C@H](N)C(=O)NC2C(CO)OC(n3cnc4c(N(C)C)ncnc43)C2O)cc1 (stereo partly drawn)
T/C (dose: 50.0 mg/kg/injection, schedule: Q04DX004 (ip), vehicle: saline): 89 % of control
T/C (dose: 100.0 mg/kg/injection, schedule: Q04DX004 (ip), vehicle: saline): 117 % of control
T/C (dose: 200.0 mg/kg/injection, schedule: Q04DX004 (ip), vehicle: saline): 102 % of control
T/C (dose: 400.0 mg/kg/injection, schedule: Q04DX004 (ip), vehicle: saline): 108 % of control

Nc1nc2ncn(O)c2c(=O)[nH]1
T/C (dose: 3.12 mg/kg/injection, schedule: Q04DX004 (ip), vehicle: water): 100 % of control
T/C (dose: 6.25 mg/kg/injection, schedule: Q04DX004 (ip), vehicle: water): 100 % of control
T/C (dose: 12.5 mg/kg/injection, schedule: Q04DX004 (ip), vehicle: water): 97 % of control
T/C (dose: 25.0 mg/kg/injection, schedule: Q04DX004 (ip), vehicle: water): 93 % of control
T/C (dose: 50.0 mg/kg/injection, schedule: Q04DX004 (ip), vehicle: water): 101 % of control

CSC1SCC2C(=O)N(C)C(C(C)C)C(=O)OCC(NC(=O)c3cnc4ccccc4n3)C(=O)NC(C)C(=O)N(C)C1C(=O)N(C)C(C(C)C)C(=O)OCC(NC(=O)c1cnc3ccccc3n1)C(=O)NC(C)C(=O)N2C (stereo not drawn)
T/C (dose: 12.5 micrograms/kg/injection, schedule: Q04DX004 (ip), vehicle: saline with Tween-80): 100 % of control
T/C (dose: 25.0 micrograms/kg/injection, schedule: Q04DX004 (ip), vehicle: saline with Tween-80): 104 % of control
T/C (dose: 50.0 micrograms/kg/injection, schedule: Q04DX004 (ip), vehicle: saline with Tween-80): 110 % of control and 111 % of control
T/C (dose: 100.0 micrograms/kg/injection, schedule: Q04DX004 (ip), vehicle: saline with Tween-80): 114 % of control
T/C (dose: 200.0 micrograms/kg/injection, schedule: Q04DX004 (ip), vehicle: saline with Tween-80): 123 % of control

N=C(N)c1ccc(N=NNc2ccc(C(=N)N)cc2)cc1
T/C [2]: 96 % of control
T/C [3]: 97 % of control

O=c1[nH]cnc2n[nH]nc12
T/C (dose: 75.0 mg/kg/injection, schedule: Q04DX004 (ip), vehicle: Klucel (hydroxypropylcellulose) (HPC)): 104 % of control
T/C (dose: 150.0 mg/kg/injection, schedule: Q04DX004 (ip), vehicle: Klucel (hydroxypropylcellulose) (HPC)): 94 % of control
T/C (dose: 300.0 mg/kg/injection, schedule: Q04DX004 (ip), vehicle: Klucel (hydroxypropylcellulose) (HPC)): 97 % of control
T/C (dose: 600.0 mg/kg/injection, schedule: Q04DX004 (ip), vehicle: Klucel (hydroxypropylcellulose) (HPC)): 95 % of control

CCOC(=O)Nc1cc2c(c(N)n1)N=C(c1ccc3ccccc3c1)CN2
T/C (dose: 3.75 mg/kg/injection, schedule: Q04DX004 (ip), vehicle: saline with Tween-80): 110 % of control
T/C (dose: 7.5 mg/kg/injection, schedule: Q04DX004 (ip), vehicle: saline with Tween-80): 108 % of control
T/C (dose: 15.0 mg/kg/injection, schedule: Q04DX004 (ip), vehicle: saline with Tween-80): 120 % of control
T/C (dose: 30.0 mg/kg/injection, schedule: Q04DX004 (ip), vehicle: saline with Tween-80): 111 % of control

Nc1nc([Se]c2nc(N)nc3c2ncn3C2OC(CO)C(O)C2O)c2ncn(C3OC(CO)C(O)C3O)c2n1 (stereo not drawn)
T/C (dose: 25.0 mg/kg/injection, schedule: Q04DX004 (ip), vehicle: distilled water + Tween-80): 123 % of control
T/C (dose: 100.0 mg/kg/injection, schedule: Q04DX004 (ip), vehicle: distilled water + Tween-80): 159 % of control
T/C (dose: 200.0 mg/kg/injection, schedule: Q04DX004 (ip), vehicle: distilled water + Tween-80): 157 % of control and 177 % of control

N#CC1C(=O)NC(=O)C(C#N)C1c1ccc(Cl)cc1Cl (stereo not drawn)
T/C (dose: 50.0 mg/kg/injection, schedule: Q04DX004 (ip), vehicle: Klucel (hydroxypropylcellulose) (HPC)): 93 % of control
T/C (dose: 100.0 mg/kg/injection, schedule: Q04DX004 (ip), vehicle: Klucel (hydroxypropylcellulose) (HPC)): 95 % of control
T/C (dose: 200.0 mg/kg/injection, schedule: Q04DX004 (ip), vehicle: Klucel (hydroxypropylcellulose) (HPC)): 100 % of control
T/C (dose: 400.0 mg/kg/injection, schedule: Q04DX004 (ip), vehicle: Klucel (hydroxypropylcellulose) (HPC)): 96 % of control

O=[N+]([O-])c1ccc(C=C2C=CN(CCO)C=C2)cc1
T/C [2]: 115 % of control
T/C [3]: 115 % of control
T/C [1]: 106 % of control

COc1cc([C@@H]2c3cc4c(cc3[C@@H](OC3OC5COC(C)OC5C(O)C3O)[C@H]3COC(=O)[C@H]23)OCO4)cc(OC)c1O (stereo partly drawn)
T/C (dose: 4.0 mg/kg/injection, schedule: Q04DX005 (ip), vehicle: saline): 150 % of control
T/C (dose: 8.0 mg/kg/injection, schedule: Q04DX004 (ip), vehicle: saline): 157 % of control
T/C (dose: 8.0 mg/kg/injection, schedule: Q04DX005 (ip), vehicle: saline): 154 % of control
T/C (dose: 16.0 mg/kg/injection, schedule: Q04DX004 (ip), vehicle: saline): 153 % of control
T/C (dose: 16.0 mg/kg/injection, schedule: Q04DX005 (ip), vehicle: saline): 198 % of control
T/C (dose: 32.0 mg/kg/injection, schedule: Q04DX004 (ip), vehicle: saline): 172 % of control and 187 % of control
T/C (dose: 32.0 mg/kg/injection, schedule: Q04DX005 (ip), vehicle: saline): 319 % of control

O=C(CSc1nnc(-c2ccc(Cl)cc2)s1)Nc1nccs1
T/C (dose: 5.0 mg/kg/injection, schedule: Q04DX004 (ip), vehicle: saline with Tween-80): 101 % of control
T/C (dose: 10.0 mg/kg/injection, schedule: Q04DX004 (ip), vehicle: saline with Tween-80): 95 % of control
T/C (dose: 20.0 mg/kg/injection, schedule: Q04DX004 (ip), vehicle: saline with Tween-80): 93 % of control
T/C [4]: 90 % of control
T/C (dose: 40.0 mg/kg/injection, schedule: Q04DX004 (ip), vehicle: saline with Tween-80): 88 % of control
T/C (dose: 80.0 mg/kg/injection, schedule: Q04DX004 (ip), vehicle: saline with Tween-80): 88 % of control

COc1ccc(Nc2c3sc4cc(OC)ccc4nc-3c3ccccc3c2=O)cc1
T/C [4]: 105 % of control
T/C (dose: 75.0 mg/kg/injection, schedule: Q04DX004 (ip), vehicle: saline with Tween-80): 89 % of control
T/C (dose: 150.0 mg/kg/injection, schedule: Q04DX004 (ip), vehicle: saline with Tween-80): 86 % of control

COc1cccc2c1[C@H]1CO[C@H]3C4C[C@H](C(=O)O)C([C@@H](C2)N13)N4C (stereo partly drawn)
T/C (dose: 0.62 mg/kg/injection, schedule: Q04DX004 (ip), vehicle: water): 98 % of control
T/C (dose: 1.25 mg/kg/injection, schedule: Q04DX004 (ip), vehicle: water): 100 % of control
T/C (dose: 2.5 mg/kg/injection, schedule: Q04DX004 (ip), vehicle: water): 102 % of control
T/C (dose: 5.0 mg/kg/injection, schedule: Q04DX004 (ip), vehicle: water): 109 % of control
T/C (dose: 10.0 mg/kg/injection, schedule: Q04DX004 (ip), vehicle: water): 118 % of control

Reference: PubChem BioAssay AID292 (DTP/NCI, 2004)
